Measured values taken from US20100240760A1 (priority 2005, published 2010).

How the values were obtained:
[1] = system: patients with mild-to-moderate essential hypertension; assay: Clinical trial A2201 (Example I): aliskiren vs placebo and irbesartan, 8 weeks; type: in vivo, human; conditions: for MSDBP responders / MSSBP responders: ITT population at Endpoint, aliskiren 150-600 mg groups, irbesartan 150 mg; for MSDBP responders: responder: MSDBP <90 mm Hg or ≧10 mm Hg reduction from baseline; for MSSBP responders: responder: MSSBP <140 mm Hg or ≧20 mm Hg reduction from baseline; for mean increase in active renin: ITT population
From the text: The clinical trial. A multicenter, randomized, double-blind, parallel group clinical trial was designed to explore the efficacy and safety of aliskiren compared to placebo in a population of mild-to-moderate hypertensive patients. The treatment was for eight weeks, i.e., the clinical trial endpoint was at eight weeks for this particular trial. […] The majority of patients were Caucasian and younger than 65 years of age, with a mean age in the mid 50s. The overall distribution of males and females was even. The primary efficacy variable analysed was MSDBP change (reduction in MSDBP from baseline). The secondary efficacy variables analysed were MSSBP change (reduction in MSSBP from baseline), responder ratio, plasma renin activity (PRA) reduction and active plasma renin (AREN) increase from baseline.

[2] = system: sodium-depleted marmosets; conditions: p.o. or i.v.; cited from earlier work
[3] = humans; cited from earlier work
[4] = system: patients with mild-to-moderate essential hypertension; assay: Clinical trial A2201 (Example I): aliskiren vs placebo and irbesartan, 8 weeks; type: in vivo, human; conditions: 75, 150, or 300 mg once daily; mild-to-moderate hypertensive patients
hypertensive patients = assay: Clinical trial A2203 (Example II): aliskiren, valsartan and combinations, 6 weeks; type: in vivo, human
[5] = system: patients with mild-to-moderate essential hypertension; assay: Pharmacogenetic analysis of A2201 (Example I): response by ACE and AGTR2 genotype; type: in vivo, human; conditions: aliskiren treated groups pooled
[6] = system: patients with mild-to-moderate essential hypertension; assay: Re-analysis of A2201 by genotype (Example II model, LSMEAN, race as covariate); type: in vivo, human; conditions: all aliskiren treated groups in A2201
From the text: Samples. Patients participating in the clinical trial A2201 (see, EXAMPLE I) and clinical trial A2203 were asked to provide a separate consent for participation in pharmacogenetic analysis. Blood samples from all consenting patients were collected at the individual trial sites and then shipped to Covance (Indianapolis, Ind.). The genomic DNA of each patient was extracted from the blood by Covance using the […]™ DNA Isolation Kit (D-50K) (Gentra, Minneapolis, Minn.) and shipped to NIBR for genotyping. Ultimately, 511 patients from the clinical trial in EXAMPLE I (A2201) were genotyped, with roughly equal ratios of each treatment arm.
The primary efficacy variable was MSDBP change (reduction in MSDBP from baseline at end point). The secondary efficacy variables are MSSBP change (reduction in MSSBP from baseline at end point), responder ratio, plasma renin activity (PRA) reduction and active plasma renin (AREN) increase from baseline.
Genotyping. SNP assays were designed using information from the public dbSNP database and the proprietary Celera/ABI database. The resulting probe sets for the genotyping assay were generated for ABI's Assays-by-Design® platform. Livak K J et al., Nat. Genet. 9: 341-2 (1995). Genotyping was performed on 10 ng of genomic DNA according to the manufacturer's instructions.
Statistical analysis. Genotype-phenotype association studies and related analyses were performed in SAS (Cary, N.C.) using Analyst.
Association tests used categorical genotypes as the independent variable, with no assumption about dominance, and the various efficacy variables as dependent variables. Tests of continuous dependent variables used an ANCOVA analysis, and logistic regression was used for categorical dependent variables. Note that none of the results have been adjusted for multiple hypothesis testing. […] Covariates in the genotype-phenotype association analysis were: (1) dose level of treatment; (2) trial region coded as STU1A in A2201 (see EXAMPLE I) or REGION in A2203; (3) baseline measurement of MSDBP and MSSBP; and (4) race. Analysis was performed in all the samples from the three aliskiren treated arms first.

[7] = SNP_4769 genotype CT (n 14), listed as Aliskiren
[8] = SNP_4769 genotype TT (n 278), listed as Aliskiren

With `CCCCC1=NC2(CCCC2)C(=O)N1Cc1ccc(-c2ccccc2-c2nnn[nH]2)cc1` [irbesartan] as the compound, how does the MSDBP responders [1] read?
The MSDBP responders was 56%.

And the MSSBP responders [1]?
The MSSBP responders was 59%.

What about the “mean increase in active renin” value ([1]; 150 mg) of the same compound?
Its value is 11.2 mu/mL.

What does the source list for `COCCCOc1cc(C[C@@H](C[C@H](N)[C@@H](O)C[C@H](C(=O)NCC(C)(C)C(N)=O)C(C)C)C(C)C)ccc1OC` [aliskiren, Aliskiren]?
inhibition of plasma renin activity (PRA) [2]: complete inhibition; mean arterial pressure (MAP) [2]: sustained reductions; plasma concentrations of active and total renin [2]: significant increases; MSDBP responders [1]: 59-67%; MSSBP responders [1]: 57-68%; mean increase in active renin ([1]; 150 mg): 20.8 mu/mL; mean increase in active renin ([1]; 300 mg): 29.9 mu/mL; mean increase in active renin ([1]; 600 mg): 93.6 mu/mL; MSDBP reduction, comparison across treatment groups ([1]; aliskiren 300 and 600 mg): greatest reductions; MSSBP reduction, comparison across treatment groups ([1]; aliskiren 300 and 600 mg): greatest reductions; MSSBP reduction, comparison with placebo and irbesartan ([1]; aliskiren 300 and 600 mg, at Endpoint): statistically superior to placebo and irbesartan; Cmax and AUC dependence on dose [3]: increase with dose, but in a non-linear fashion; bioavailability [3]: approximately 2.7%; half-life [3]: approximately 25 hours; time to peak plasma levels after administration [3]: 3 to 5 h; daytime ambulatory systolic blood pressure (DASBP) [4]: statistically significant reduction; change from baseline in MSDBP, aliskiren monotherapy vs. placebo (hypertensive patients; aliskiren 300 mg group, 6 weeks): statistically significant; dose-response and magnitude of placebo-subtracted effects (hypertensive patients; preliminary clinical study results summary, placebo response 8.6 mmHg): lower than expected; MSDBP reduction ([5]; SNP_1445 genotype AA (n 106)): −11.2 mmHg; MSSBP reduction ([5]; SNP_1445 genotype AA (n 106)): −13.9 mm Hg; MSDBP reduction ([5]; SNP_1445 genotype AG (n 69)): −13.2 mmHg; MSSBP reduction ([5]; SNP_1445 genotype AG (n 69)): −15.7 mm Hg; MSDBP reduction ([5]; SNP_1445 genotype GG (n 118)): −9.3 mmHg; MSSBP reduction ([5]; SNP_1445 genotype GG (n 118)): −11.8 mm Hg; MSDBP reduction ([5]; SNP_4769 genotype CT (n 14)): 4.7 mmHg; MSSBP reduction ([5]; SNP_4769 genotype CT (n 14)): 6.2 mm Hg; MSDBP reduction [5, 7]: −4.7 mmHg; MSSBP reduction [5, 7]: −6.2 mm Hg; MSDBP reduction ([5]; SNP_4769 genotype TT (n 278)): 11.1 mmHg; MSSBP reduction ([5]; SNP_4769 genotype TT (n 278)): 13.7 mm Hg; MSDBP reduction [5, 8]: −11.1 mmHg; MSSBP reduction [5, 8]: −13.7 mm Hg; MSDBP reduction ([5]; SNP_4795 genotype AA (n 115)): −9.0 mmHg; MSSBP reduction ([5]; SNP_4795 genotype AA (n 115)): −11.5 mm Hg; MSDBP reduction ([5]; SNP_4795 genotype GA (n 72)): −13.3 mmHg; MSSBP reduction ([5]; SNP_4795 genotype GA (n 72)): −16.3 mm Hg; MSDBP reduction ([5]; SNP_4795 genotype GG (n 106)): −11.1 mmHg; MSSBP reduction ([5]; SNP_4795 genotype GG (n 106)): −13.6 mm Hg; LSMEAN of MSDBP reduction ([6]; SNP_1445 genotype AA (n 106)): −11.0 mmHg; LSMEAN of MSSBP reduction ([6]; SNP_1445 genotype AA (n 106)): −11.2 mmHg; Responder rate ([6]; SNP_1445 genotype AA (n 106)): 75%; LSMEAN of MSDBP reduction ([6]; SNP_1445 genotype AG (n 69)): −13.3 mmHg; LSMEAN of MSSBP reduction ([6]; SNP_1445 genotype AG (n 69)): −13.8 mmHg; Responder rate ([6]; SNP_1445 genotype AG (n 69)): 71%; LSMEAN of MSDBP reduction ([6]; SNP_1445 genotype GG (n 118)): −9.4 mmHg; LSMEAN of MSSBP reduction ([6]; SNP_1445 genotype GG (n 118)): −9.8 mmHg; Responder rate ([6]; SNP_1445 genotype GG (n 118)): 58%; Responder rate ([6]; SNP_4769 genotype CT (n 14)): 14%; LSMEAN of MSDBP reduction ([6]; SNP_4795 genotype AA (n 115)): −9.2 mmHg; LSMEAN of MSSBP reduction ([6]; SNP_4795 genotype AA (n 115)): −9.5 mmHg; Responder rate ([6]; SNP_4795 genotype AA (n 115)): 57%; LSMEAN of MSDBP reduction ([6]; SNP_4795 genotype GA (n 72)): −13.4 mmHg; LSMEAN of MSSBP reduction ([6]; SNP_4795 genotype GA (n 72)): −14.2 mmHg; Responder rate ([6]; SNP_4795 genotype GA (n 72)): 74%; LSMEAN of MSDBP reduction ([6]; SNP_4795 genotype GG (n 106)): −10.8 mmHg; LSMEAN of MSSBP reduction ([6]; SNP_4795 genotype GG (n 106)): −10.8 mmHg; Responder rate ([6]; SNP_4795 genotype GG (n 106)): 75%
